Measured values taken from publication PMC11674187, “Inhibitory Effects of Cenobamate on Multiple Human Cardiac Ion Channels and Possible Arrhythmogenic Consequences” (Biomolecules, 2024).
“And” between values parts separate entries of the source, which are not always exact repeats. Equal entries are not always repeated. Where two headings read alike, the source gives them in different places.

Tests used:
hNav1.5 = target: T1, hNav1.5 (Homo sapiens, UniProt Q14524); experiment: Whole-cell patch-clamp on HEK293T cells, peak INa (standard, activation and inactivation protocols); assay type: cell-based
T1 construct: host or cells: HEK293T
Procedure: (§1) Experiments were performed on HEK293T cell lines with persistent/inducible expression of different human cardiac ion channel isoforms: hNav1.5 and hKv7.1 + minK (Anaxon AG, Bern, Switzerland), hCav1.2 (α1c + β2 + α2δ1) (B’SYS GmbH, Witterswil, Switzerland), and hKv11.1 (hERG) (Cytocentrics Bioscience GmbH, Rostock, Germany). The cell lines were grown in standard conditions (37 °C, 5% CO2, 90% humidity) in DMEM:F12 medium (D8900, Sigma-Aldrich, Burlington, MA, USA) buffered with 15 mM HEPES, containing 3.15 g/L D-glucose and 0.055 g/L sodium pyruvate, supplemented with 1.2 g/L sodium bicarbonate, 10% fetal bovine serum (F2442, Sigma-Aldrich, Burlington, MA, USA), 2 mM L-glutamine (G7513, Sigma-Aldrich, Burlington, MA, USA), 1% penicillin–streptomycin (P4333, Sigma-Aldrich, Burlington, MA, USA), and with specific antibiotics for selection of transfected cells or induction of gene expression according to manufacturers’ instructions. The medium was changed every 2–3 days and the cells were passed weekly upon detachment with trypsin–EDTA solution. All cell culture media and solutions were sterile filtered with 0.22 μm polyvinylidene fluoride filters. Ncyte® vCardiomyocytes (Ncardia, Leiden, The Netherlands) were cultured in 24-well plates precoated with bovine fibronectin, following manufacturer’s instructions. For the experiments, cardiomyocytes were detached as described previously and plated on ϕ 10 mm glass coverslips, like the other cell lines.
(§2) Manual whole-cell patch-clamp experiments were performed at room temperature, with equipment as described in previous studies. Pipettes were pulled from Clark borosilicate glass capillaries with inner filament (GC150F-10, Harvard Apparatus, Holliston, MA, USA) and had typical resistances of 2–3 MΩ. Recordings were performed with a WPC-100 resistive feedback amplifier (ESF electronic, Göttingen, Germany) or an Axopatch 200B amplifier (Axon Instruments—Molecular Devices, San Jose, CA, USA) connected to a Digidata 1322A interface driven by the pClamp 8.2 Clampex module (Axon Instruments, part of Molecular Devices, San Jose, CA, USA). For different types of ion channel, we applied specific voltage-clamp protocols as follows: • - For hERG, a standard two-step activation protocol was used: holding at −70 mV, a 100 ms step at −50 mV used as current reference for measurements, a 2 s depolarizing step at +40 mV, followed by a 2 s step at −50 mV to elicit the peak hERG current by rapid recovery from inactivation, repeated sweeps at 10 s intervals, plus specific protocols to assess the voltage dependence of activation and inactivation, as described in Thomet et al., 2021 [11]. • - For hKv7.1 + minK, a general two-step activation protocol was used: holding at −110 mV, a 250 ms step at −80 mV with a brief (50 ms) step at −90 mV at the middle to monitor seal quality, a 3000 ms depolarizing step at +60 mV, followed by a 1000 ms step at −50 mV; repeated sweeps at 20 s intervals. • - For hCav1.2, a pharmacology protocol with holding at −80 mV, a first 100 ms step at −50 mV and a second 200 ms step at 0 mV, repeated sweeps at 20 s intervals with drug application after 5 sweeps if current levels were steady, plus an activation–inactivation protocol with holding at −80 mV, 1000 ms depolarizing steps from −80 to +50 mV in 10 mV increments, followed by 250 ms steps at +10 mV and a return to −80 mV; 14 sweeps at 20 s intervals. • - For hNav1.5, multiple voltage protocols were used, including the following: • - A standard pharmacology protocol with holding at −90 mV, a 20 ms step at −110 mV for seal monitoring, a 40 ms activation step at −10 mV, and repeated sweeps at 1 s intervals. […]

[1] = target: T2, hCav1.2 (α1c + β2 + α2δ1) (Homo sapiens, UniProt Q13936); experiment: Whole-cell patch-clamp on HEK293T cells, ICaL; assay type: cell-based
T2 construct: host or cells: HEK293T
Procedure: as §1, §2

hKv7.1 + minK = target: T3, hKv7.1 + minK (Homo sapiens, UniProt P51787); experiment: Whole-cell patch-clamp on HEK293T cells, IKs; assay type: cell-based; conditions: for inhibition at 200 µM: HEK-293T
T3 construct: host or cells: HEK293T
Procedure: as §1
Manual whole-cell patch-clamp experiments were performed at room temperature, with equipment as described in previous studies. Pipettes were pulled from Clark borosilicate glass capillaries with inner filament (GC150F-10, Harvard Apparatus, Holliston, MA, USA) and had typical resistances of 2–3 MΩ. Recordings were performed with a WPC-100 resistive feedback amplifier (ESF electronic, Göttingen, Germany) or an Axopatch 200B amplifier (Axon Instruments—Molecular Devices, San Jose, CA, USA) connected to a Digidata 1322A interface driven by the pClamp 8.2 Clampex module (Axon Instruments, part of Molecular Devices, San Jose, CA, USA). […]

neuronal Na+ channels = test system: neuronal Na+ channels; parameters: method as in PMID 33993416; conditions: ref [6]; read-out: IC50 on late (persistent) neuronal Na+ current; cited from earlier work
hNav1.7 = test system: hNav1.7; parameters: method as in ref [5] p. 8; conditions: hNav1.7 in HEK293 cells, ref [5] p. 8, cited from earlier work
IKr (hERG) = conditions: read-out: apparent IC50 for IKr (hERG); used for further computations; ref [5] p. 10; cited from earlier work
[2] = cited from earlier work
[3] = rabbit; ref [5] p.10; cited from earlier work
[4] = mouse; ref [5] p.10; cited from earlier work

T2 sequence (Q13936 whole entry): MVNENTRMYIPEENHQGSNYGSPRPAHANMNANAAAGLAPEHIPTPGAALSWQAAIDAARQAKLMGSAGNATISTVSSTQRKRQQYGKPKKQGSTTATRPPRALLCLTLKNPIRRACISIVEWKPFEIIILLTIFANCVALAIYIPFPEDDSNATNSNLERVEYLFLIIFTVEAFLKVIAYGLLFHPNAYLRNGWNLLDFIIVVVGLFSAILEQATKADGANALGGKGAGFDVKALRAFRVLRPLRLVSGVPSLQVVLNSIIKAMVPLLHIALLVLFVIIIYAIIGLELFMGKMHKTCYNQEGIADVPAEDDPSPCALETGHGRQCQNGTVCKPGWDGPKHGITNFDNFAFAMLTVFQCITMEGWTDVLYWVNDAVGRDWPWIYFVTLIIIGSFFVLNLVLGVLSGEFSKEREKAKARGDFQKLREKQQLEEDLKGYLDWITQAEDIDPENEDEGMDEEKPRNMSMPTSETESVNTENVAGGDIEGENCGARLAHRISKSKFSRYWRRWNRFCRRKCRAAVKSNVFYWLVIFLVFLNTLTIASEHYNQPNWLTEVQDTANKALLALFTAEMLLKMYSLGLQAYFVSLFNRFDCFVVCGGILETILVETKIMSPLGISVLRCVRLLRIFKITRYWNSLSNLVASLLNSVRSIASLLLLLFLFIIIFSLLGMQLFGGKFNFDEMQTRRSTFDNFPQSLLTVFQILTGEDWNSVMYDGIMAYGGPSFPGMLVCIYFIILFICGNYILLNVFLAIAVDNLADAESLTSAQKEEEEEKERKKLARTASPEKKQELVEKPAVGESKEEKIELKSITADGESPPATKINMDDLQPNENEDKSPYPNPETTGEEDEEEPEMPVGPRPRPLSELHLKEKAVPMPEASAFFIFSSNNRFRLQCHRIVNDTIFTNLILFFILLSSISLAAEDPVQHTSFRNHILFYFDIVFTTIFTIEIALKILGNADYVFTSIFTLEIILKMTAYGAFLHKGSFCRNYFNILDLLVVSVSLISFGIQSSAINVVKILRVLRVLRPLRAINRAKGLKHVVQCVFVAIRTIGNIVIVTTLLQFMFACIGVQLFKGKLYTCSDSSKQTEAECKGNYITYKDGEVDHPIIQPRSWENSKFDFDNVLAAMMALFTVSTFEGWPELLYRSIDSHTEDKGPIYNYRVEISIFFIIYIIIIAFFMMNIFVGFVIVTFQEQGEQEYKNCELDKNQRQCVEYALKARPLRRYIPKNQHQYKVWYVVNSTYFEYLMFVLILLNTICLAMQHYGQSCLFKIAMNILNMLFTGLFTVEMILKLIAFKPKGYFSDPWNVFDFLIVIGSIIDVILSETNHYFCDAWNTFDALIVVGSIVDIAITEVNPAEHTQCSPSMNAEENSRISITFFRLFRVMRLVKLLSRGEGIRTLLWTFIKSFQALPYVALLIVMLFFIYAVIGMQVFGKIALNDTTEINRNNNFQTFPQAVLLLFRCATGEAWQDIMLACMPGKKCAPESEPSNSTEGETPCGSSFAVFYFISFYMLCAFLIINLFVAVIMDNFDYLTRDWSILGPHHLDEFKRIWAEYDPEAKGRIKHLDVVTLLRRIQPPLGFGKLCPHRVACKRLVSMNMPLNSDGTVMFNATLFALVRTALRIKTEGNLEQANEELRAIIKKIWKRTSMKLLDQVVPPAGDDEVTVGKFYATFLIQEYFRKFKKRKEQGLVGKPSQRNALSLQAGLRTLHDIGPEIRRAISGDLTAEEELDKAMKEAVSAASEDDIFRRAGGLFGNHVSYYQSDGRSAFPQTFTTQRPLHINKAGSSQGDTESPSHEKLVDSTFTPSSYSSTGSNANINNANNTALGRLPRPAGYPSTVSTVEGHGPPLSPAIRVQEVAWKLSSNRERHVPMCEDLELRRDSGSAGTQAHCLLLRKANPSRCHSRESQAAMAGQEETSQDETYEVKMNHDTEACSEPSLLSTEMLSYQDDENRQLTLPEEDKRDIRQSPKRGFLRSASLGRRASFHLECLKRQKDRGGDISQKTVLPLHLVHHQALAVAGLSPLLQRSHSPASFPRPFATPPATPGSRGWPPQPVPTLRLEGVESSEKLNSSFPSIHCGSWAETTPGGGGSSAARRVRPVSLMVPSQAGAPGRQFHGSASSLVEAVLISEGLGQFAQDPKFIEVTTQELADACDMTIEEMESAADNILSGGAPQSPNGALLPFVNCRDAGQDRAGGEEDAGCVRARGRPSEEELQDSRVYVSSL
T2 sequence (Q08289 whole entry partner): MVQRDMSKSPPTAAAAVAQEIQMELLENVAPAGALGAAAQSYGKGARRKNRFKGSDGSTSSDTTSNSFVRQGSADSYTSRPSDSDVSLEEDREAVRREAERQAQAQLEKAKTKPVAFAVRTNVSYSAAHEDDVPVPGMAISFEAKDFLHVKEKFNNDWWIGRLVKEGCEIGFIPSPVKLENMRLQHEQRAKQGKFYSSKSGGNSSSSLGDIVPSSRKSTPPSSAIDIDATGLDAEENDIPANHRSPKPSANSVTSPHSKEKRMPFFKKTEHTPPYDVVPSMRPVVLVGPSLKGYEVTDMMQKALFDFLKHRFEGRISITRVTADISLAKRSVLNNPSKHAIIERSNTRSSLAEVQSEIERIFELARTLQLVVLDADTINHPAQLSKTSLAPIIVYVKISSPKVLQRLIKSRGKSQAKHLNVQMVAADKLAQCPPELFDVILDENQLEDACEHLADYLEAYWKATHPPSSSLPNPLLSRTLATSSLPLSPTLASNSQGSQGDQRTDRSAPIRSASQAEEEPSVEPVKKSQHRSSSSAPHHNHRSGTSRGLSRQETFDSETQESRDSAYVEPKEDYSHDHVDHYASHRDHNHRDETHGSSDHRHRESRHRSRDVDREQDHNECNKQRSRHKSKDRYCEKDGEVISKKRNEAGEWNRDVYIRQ
T2 sequence (P54289 25-946 partner limits assumed): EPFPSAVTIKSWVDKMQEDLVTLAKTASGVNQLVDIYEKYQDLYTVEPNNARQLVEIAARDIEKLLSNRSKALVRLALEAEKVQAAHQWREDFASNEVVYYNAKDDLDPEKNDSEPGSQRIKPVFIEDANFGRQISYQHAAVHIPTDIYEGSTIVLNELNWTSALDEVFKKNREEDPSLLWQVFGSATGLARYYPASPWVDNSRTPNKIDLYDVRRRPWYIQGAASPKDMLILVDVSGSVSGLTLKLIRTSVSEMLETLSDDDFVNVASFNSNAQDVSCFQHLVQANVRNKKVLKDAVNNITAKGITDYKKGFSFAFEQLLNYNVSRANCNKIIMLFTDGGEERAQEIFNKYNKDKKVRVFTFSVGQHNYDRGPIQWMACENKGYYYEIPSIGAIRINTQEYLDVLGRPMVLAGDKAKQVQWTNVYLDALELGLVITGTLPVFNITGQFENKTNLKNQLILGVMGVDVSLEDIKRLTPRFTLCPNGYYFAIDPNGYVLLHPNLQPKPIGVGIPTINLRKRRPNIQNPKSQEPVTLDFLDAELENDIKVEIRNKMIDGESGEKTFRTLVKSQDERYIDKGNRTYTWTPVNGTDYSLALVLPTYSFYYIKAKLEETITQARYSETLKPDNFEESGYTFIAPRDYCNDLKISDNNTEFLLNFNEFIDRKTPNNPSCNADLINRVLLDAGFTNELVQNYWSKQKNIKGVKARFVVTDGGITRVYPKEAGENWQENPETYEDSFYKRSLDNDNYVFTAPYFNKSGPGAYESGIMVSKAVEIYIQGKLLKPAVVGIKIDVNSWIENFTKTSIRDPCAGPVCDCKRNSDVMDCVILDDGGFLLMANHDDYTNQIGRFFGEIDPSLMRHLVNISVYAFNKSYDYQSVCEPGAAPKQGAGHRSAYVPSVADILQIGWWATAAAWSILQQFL
T2 sequence (P54289 947-1103 partner limits assumed): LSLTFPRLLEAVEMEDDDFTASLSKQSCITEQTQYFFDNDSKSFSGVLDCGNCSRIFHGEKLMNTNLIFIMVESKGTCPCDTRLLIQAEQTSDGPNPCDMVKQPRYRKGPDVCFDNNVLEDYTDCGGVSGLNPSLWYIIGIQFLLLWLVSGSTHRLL
T3 sequence (P51787 whole entry): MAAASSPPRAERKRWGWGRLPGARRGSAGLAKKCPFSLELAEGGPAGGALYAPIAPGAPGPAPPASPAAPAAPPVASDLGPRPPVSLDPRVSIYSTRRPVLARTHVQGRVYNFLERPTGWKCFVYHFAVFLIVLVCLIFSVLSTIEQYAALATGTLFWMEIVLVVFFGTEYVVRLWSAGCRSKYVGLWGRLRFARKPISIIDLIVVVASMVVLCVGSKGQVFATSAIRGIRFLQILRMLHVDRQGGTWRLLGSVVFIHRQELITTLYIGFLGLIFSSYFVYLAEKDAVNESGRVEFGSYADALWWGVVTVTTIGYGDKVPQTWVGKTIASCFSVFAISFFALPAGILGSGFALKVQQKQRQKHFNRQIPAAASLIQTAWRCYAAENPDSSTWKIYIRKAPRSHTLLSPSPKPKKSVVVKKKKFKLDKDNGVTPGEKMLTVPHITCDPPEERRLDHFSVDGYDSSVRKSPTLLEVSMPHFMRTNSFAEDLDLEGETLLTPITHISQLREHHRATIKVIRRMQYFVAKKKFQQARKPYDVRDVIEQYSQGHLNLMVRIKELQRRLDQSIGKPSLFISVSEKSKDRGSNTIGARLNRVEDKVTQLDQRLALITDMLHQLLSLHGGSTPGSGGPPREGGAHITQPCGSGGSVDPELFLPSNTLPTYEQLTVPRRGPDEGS

## NC(=O)O[C@@H](Cn1ncnn1)c1ccccc1Cl [cenobamate]
hNav1.5; HEK-293T, cenobamate 10 µM, read-out: % INa inhibition (peak), mean (Table S2)
  inhibition at 10 µM: 8.6%
hNav1.5; HEK-293T, cenobamate 10 µM, read-out: % INa inhibition (peak), single experiments (Table S2)
  inhibition at 10 µM: 8.58%
hNav1.5; HEK-293T, cenobamate 40 µM, read-out: % INa inhibition (peak), mean (Table S2)
  inhibition at 40 µM: 37.7%
hNav1.5; HEK-293T, cenobamate 100 µM, read-out: % INa inhibition (peak), mean (Table S2)
  inhibition at 100 µM: 49%
hNav1.5; HEK-293T, cenobamate 100 µM, read-out: % INa inhibition (peak), single experiments (Table S2)
  inhibition at 100 µM: 52.7%
hNav1.5; HEK-293T, cenobamate 200 µM, read-out: % INa inhibition (peak), mean (Table S2)
  inhibition at 200 µM: 69.9%
hNav1.5; HEK-293T, cenobamate 200 µM, standard protocol, step at -10 mV, initial set, mean (SD), n = 6, read-out: average inhibition of peak INa
  inhibition at 200 µM: 69.5%
hNav1.5; HEK-293T, cenobamate 1000 µM, read-out: % INa inhibition (peak), mean (Table S2)
  inhibition at 1000 µM: 89.3%
hNav1.5; HEK-293T, cenobamate 1000 µM, read-out: % INa inhibition (peak), single experiments (Table S2)
  inhibition at 1000 µM: 89.6%
hNav1.5; INaIC50 (model script), value entered in C++ script
  IC50: 87.6 µM
hNav1.5; apparent IC50 for peak INa inhibition, Hill coefficient nH = 1, room temperature
  IC50: 87.6 µM and < 100 µM
hNav1.5; cenobamate 10 µM
  % INa inhibition (peak), single experiments (Table S2): 9.79% and 10.02% and 5.97%
hNav1.5; cenobamate 40 µM
  % INa inhibition (peak), single experiments (Table S2): 36.42% and 24.23% and 44.79% and 44.54% and 38.53%
hNav1.5; cenobamate 100 µM
  % INa inhibition (peak), single experiments (Table S2): 51.80% and 49.36% and 42.07%
hNav1.5; cenobamate 200 µM
  % INa inhibition (peak), single experiments (Table S2): 64.55% and 87.37% and 54.65% and 52.32% and 72.86%
hNav1.5; cenobamate 200 µM, both activation and inactivation
  voltage shifts of voltage dependence of activation and steady-state inactivation: > 10 mV
hNav1.5; cenobamate 200 µM, multiple depolarizing steps
  voltage dependence of peak INa inhibition: virtually voltage-independent
hNav1.5; cenobamate 200 µM, standard protocol, step at -10 mV, initial set, mean (SD), n = 6
  average inhibition of peak INa: 69.53 ± 14.63%
hNav1.5; cenobamate 200 µM, step at -10 mV
  % INa inhibition, single experiments (Table S1): 56.27% and 68.71% and 86.95% and 54.87% and 87.66% and 62.74%
hNav1.5; cenobamate 1000 µM
  % INa inhibition (peak), single experiments (Table S2): 91.76% and 89.36% and 86.34%
[1]; HEK-293T, cenobamate 20 µM, read-out: % ICaL inhibition, mean (Table S5)
  inhibition at 20 µM: 6.65%
[1]; HEK-293T, cenobamate 100 µM, read-out: % ICaL inhibition, mean (Table S5)
  inhibition at 100 µM: 11.3%
[1]; HEK-293T, cenobamate 100 µM, read-out: % ICaL inhibition, single experiments (Table S5)
  inhibition at 100 µM: 11.2%
[1]; HEK-293T, cenobamate 200 µM, read-out: % ICaL inhibition, mean (Table S5)
  inhibition at 200 µM: 34.5%
[1]; HEK-293T, cenobamate 200 µM, step at 0 mV, initial set, mean (SD), n = 4, read-out: average inhibition of peak ICaL amplitude
  inhibition at 200 µM: 39.3 ± 13.8%
[1]; HEK-293T, cenobamate 400 µM, read-out: % ICaL inhibition, mean (Table S5)
  inhibition at 400 µM: 42%
[1]; HEK-293T, cenobamate 400 µM, read-out: % ICaL inhibition, single experiments (Table S5)
  inhibition at 400 µM: 39%
[1]; HEK-293T, cenobamate 1000 µM, read-out: % ICaL inhibition, mean (Table S5)
  inhibition at 1000 µM: 65.3%
[1]; ICaLIC50 (model script), value entered in C++ script
  IC50: 510 µM
[1]; apparent IC50 for hCav1.2 (ICaL) inhibition, unitary Hill coefficient
  IC50: 510 µM
[1]; cenobamate 100 µM
  % ICaL inhibition, single experiments (Table S5): 11.40% and 10.58% and 12.03%
[1]; cenobamate 200 µM, step at 0 mV, initial set, mean (SD), n = 4
  average inhibition of peak ICaL amplitude: 39.26 ± 13.78%
[1]; cenobamate 400 µM
  % ICaL inhibition, single experiments (Table S5): 41.25% and 47.37% and 40.40%
[1]; cenobamate 1000 µM
  % ICaL inhibition, single experiments (Table S5): 77.36% and 58.39% and 76.52% and 52.87% and 61.56%
hKv7.1 + minK
  IC50: > 200 µM
hKv7.1 + minK; cenobamate 200 µM, mean (SD), n = 8, not corrected for control rundown 23.66%, read-out: average inhibition of IKs plateau current at +60 mV
  inhibition at 200 µM: 36.7 ± 13%
hKv7.1 + minK; cenobamate 200 µM, read-out: estimated net average IKs inhibition (cenobamate 200 µM − control)
  inhibition at 200 µM: 13%
hKv7.1 + minK; cenobamate 200 µM, mean (SD), n = 8, not corrected for control rundown 23.66%
  average inhibition of IKs plateau current at +60 mV: 36.68 ± 13.02%
Neuronal Na+ channels
  IC50: 59 µM
hNav1.7; read-out: IC50 on late (persistent) INa
  IC50: 41.8 µM
hNav1.7; read-out: estimated IC50 on peak (transient) Na+ current
  IC50: > 500 µM
IKr (hERG)
  IC50: 1870 µM
[2]; human, ref [5] p.10
  protein binding: 61.0%
[2]; study YKP3089C018, ref [5] p. 13
  average binding to plasma proteins: ~ 60% and 60%
[3]
  protein binding: 35.4%
[4]
  protein binding: 43.2%
